Laboratory results from patent US20020120008A1, “Life extension of drosophila by a drug treatment” (priority 2000, published 2002).

Assays:
Drosophila EST clones = test: Differential gene expression on high density membrane arrays; format: in vivo, Drosophila melanogaster; conditions: 10 mM PBA, 10 days, 29° C.
Method: To investigate the differential pattern of gene activity resulting from PBA treatment, high density membrane arrays containing about 27,000 Drosophila EST clones (Research Genetics, Huntsville, Tenn.) were used. Messenger RNA was prepared from either 10 day old flies that had been treated with 10 mM PBA at 29° C. from emergence onward. A similar preparation was made from untreated flies. These RNA preparations were used as probes on the membrane arrays.
The Smart PCR cDNA synthesis kit (Clontech, Palo Alto, Calif.) was used to synthesize probes for hybridization. Total RNA was prepared from flies (males+females) fed for 10 days at 29° C. with medium containing 10 mM PBA or plain medium. After first strand synthesis of cDNAs by MMLV reverse transcriptase (M-MLV reverse transcriptase, Boehringer Mannheim, Indianapolis, Ind.), the cDNA was amplified by polymerase chain reaction (PCR). The reaction consisted of 95° C. for 1 minute, then 24 cycles of 95° C. for 15 seconds, 65° C. for 30 seconds, and 68° C. for 6 minutes. Probes were prepared by a random primed DNA labeling method with p^32. Filters containing 27,000 Drosophila EST clones (Research Genetics, Huntsville, Tenn.) were prehybridized for 4 hours, then probes were added to hybridize for 16 hours at 58° C. in a buffer containing 1 M NaCl, 0.05M Tris (pH 8.0), 5 mM EDTA, 1% SDS, and 10% Dextran Sulfate. […]

Drosophila [1] = test: Locomotor activity, negative geotaxis in counter current distribution apparatus; format: in vivo, Drosophila melanogaster; conditions: old flies, FIG. 3A
Method: Life extension without maintaining physical or mental vigor is undesirable. To examine whether the life span increase by PBA is associated with extended maintenance of vigor, the locomotor activity was measured for young and old flies raised with and without PBA treatment. A known assay of negative geotaxis in a counter current distribution apparatus was measured the locomotor activity of the flies (Benzer, S. Proc. Natl. Acad. Sci. U.S.A. 58, 1112-1119 (1967); FIG. 3A).

Drosophila [2] = test: Food intake (food dye in alimentary tract), caloric restriction test; format: in vivo, Drosophila melanogaster; conditions: overnight feeding, ten flies per group
Method: (§1) Caloric restriction increases life span in rodents, worms, and yeast (Guarente, L & Kenyon, C. Nature 408, 255-262 (2000)). Although PBA is odorless and tasteless to human, flies may dislike the smell or taste of the drug, which may cause caloric restriction. To test the issue of possible caloric restriction effects, the intake of food was measured by adding food dye to both the control and PBA containing media. After an overnight feeding, the alimentary tracts of ten flies from each group were dissected out and examined for color. No difference in the alimentary tract of these flies was discernible. Further, the weight and size of the flies were measured after ten days of feeding with or without PBA (Table 1). […] Therefore, the extension of life span observed in Drosophila fed PBA is most likely not due to caloric restriction.

Drosophila [3] = test: Survival on dry starvation; format: in vivo, Drosophila melanogaster; conditions: empty vials, FIG. 3B
Method: (§2) Stress to an animal can be achieved by starvation or an increase production of free radicals. The effective removal of free radicals or the increase of antioxidant levels reduce stress to the animal and are important in slowing down the ageing process. The failure to repair oxidative damages and the elevation of free radial is known to shorten the life span of animal. Therefore, resistance to stress was measured in PBA fed flies by measuring if they have an increase resistance to the free radical generator, paraquat, and to dry starvation. PBA treated and control flies drank sucrose solution containing 20 mM paraquat were tested for duration of life span (e.g. survival) (FIG. 3C). […] PBA treated and control flies were also put into empty vials to measure their survival on dry starvation (FIG. 3B).

Drosophila [4] = test: Life span of Drosophila fed PBA early or late in life; format: in vivo, Drosophila melanogaster
Drosophila [5] = test: Weight and size of flies fed PBA; format: in vivo, Drosophila melanogaster
Method: (§3) Table 1 is a comparison of weight, size and reproductive ability of Drosophila raised on food with and without 10 mM PBA for 10 days at 25° C., as described in Example 1, infra.
as §1

Drosophila [6] = test: Life span of Drosophila fed various concentrations of PBA; format: in vivo, Drosophila melanogaster
Drosophila [7] = test: Resistance to paraquat induced stress (survival); format: in vivo, Drosophila melanogaster; conditions: sucrose solution containing 20 mM paraquat, FIG. 3C
Method: as §2

histones H3 and H4 = test: Histone acetylation level by western blot in flies fed PBA; format: in vivo, Drosophila melanogaster; conditions: flies fed PBA versus untreated, FIG. 4A and 4B
Source text: PBA, an inhibitor of histone deacetylase, is known to enhance acetylation in the tails of histones H3 and H4, which causes the tails to be released from the DNA (Lea et al. Induction of Histone Acetylation and Growth Regulation in Erythroleukemia Cells by 4-phenylbutyrate and Structural Analogs Anticancer Research 19:1971-1976 (1999)). The acetylation of histones changes the binding affinity between histones and DNA, and leads genes to recruit transcription factors and undergo transcription. Using western blots stained with specific antibodies, the level of histone acetylation was measured in Drosophila, with and without PBA treatment. Batches of 100 flies (males+females) were used to prepare histones (Alfageme, C. R., Zweidler, A., Mahowald, A. & Cohen, L. H. Histones of Drosophila embryos J. Biol. Chem. 12, 3729-3736 (1974)). The homogenates of whole flies were centrifuged at 2,500×g for 10 min in a medium containing 0.05 M glycine, 10 mM Tris potassium maleate, 5 mM MgCl2, 10 mM mercaptoethanol, pH 7.3. Isolated nuclei were used to extract histones by HCl treatment. 10 μg samples of histone protein were loaded on a 16.5% polyacrylamide gel for electrophoresis, then transferred to a PVDF membrane (Immobilin-P transfer membrane, Millipore, Bedford, Mass.), followed by hybridization with antibodies to acetylated and nonacetylated H3 and H4 (Upstate Biotechnology, Lake Placid, N.Y.).

transcription levels = test: Verification of changes in transcription levels (RT-PCR / Northern); conditions: 10 mM PBA, 10 days, 29° C.
Method: In another embodiment of the invention RT-PCR was be used to verify the changes in transcription levels seen by the difference in hybridization on the membrane arrays. Newly emerged adult flies (males+females) were fed food containing 10 mM PBA, or plain food for 10 days at 29° C., then total RNA was extracted and used to synthesize cDNA. For each PCR reaction, 50 ng of cDNA was used. Primers were designed from the sequence of each gene to detect fragments of between 300 and 600 base pairs (Table 4). PCR reactions were performed with 30 cycles of 94° C. for 1 minute, 55° C. for 1 minute, and 72° C. for 1 minute.
Biochem. Biophys. 301, 34-40 (1993)). Elongation factor1-alpha plays a critical role in maintaining the level of protein synthesis, which normally declines with age (Webster, G. C. & Webster, S. L. Specific disappearance of translatable messenger RNA for elongation factor one in aging Drosophila melanogaster. Mech. Ageing Devel. 24, 335-342). […] Heat shock proteins enhance resistance to stress and extend life span (Tatar, M., Khazaeli, A. A. & Curtsinger, J. W. Chaperoning extended life. Nature 390, 30 (1997); Lithgow, G. J. Temperature, stress response and aging. Rev. Clin. Gerontol. 6, 119-127 (1996)).

histone deacetylase = conditions: Lea & Randolph 1998; cited from earlier work
Drosophila [8] = test: Reproductive activity of Drosophila fed PBA (eggs, adult progeny, progeny weight and size); format: in vivo, Drosophila melanogaster
Method: as §3
Reproductive signaling in C. elegans and Drosophila also contribute to extend life span (Guarente, L & Kenyon, C. Nature 408, 255-262 (2000)). PBA treatment may slow down reproduction of flies and thus results in the extension of life span. The role of PBA on the reproductive activity of female Drosophila was examined by counting the number of eggs layed, the percentage of eggs yielding adult progeny, and the weight and size of the progeny.

[9] = 10 mM PBA, 10 days, 25° C., n = 10
[10] = 10 mM PBA, 10 days, 25° C., n = 40
[11] = w^118 flies, medium containing 10 mM PBA, 29° C. (FIG. 1A)
[12] = progeny of flies raised on 10 mM PBA, n = 10
[13] = progeny of flies raised on 10 mM PBA, n = 40

O=C([O-])CCCc1ccccc1.[Na+] [PBA, 4-phenylbutyric acid, sodium salt]
number of genes strongly induced (Drosophila EST clones): One hundred
number of genes suppressed (Drosophila EST clones; disappearance of a visible spot): 48
climbing ability (locomotor activity) (Drosophila [1]): enhanced the climbing ability of old flies significantly
intake of food (colour of alimentary tract) (Drosophila [2]): No difference
resistance to dry starvation (Drosophila [3]): enhanced the resistance to starvation
life span compared with untreated flies (Drosophila [4]; PBA from emergence to 12 days, then plain medium): increased life span compared with untreated flies
life span compared with untreated flies (Drosophila [4]; plain medium for first 12 days, then PBA for remainder of life): increased life span compared with untreated flies
treatment initiated at later age versus young age (Drosophila [4]; virgin female flies (not in males), FIG. 2A): even more effective than the same duration of treatment at young age
weight of 5 flies, parent females (Drosophila [5]; [9]): 5.1 ± 0.2 mg
weight of 5 flies, parent males (Drosophila [5]; [9]): 3.3 ± 0.4 mg
size of fly, parent female (Drosophila [5]; [10]): 5.5 ± 0.1 mm
size of fly, parent male (Drosophila [5]; [10]): 4.6 ± 0.1 mm
weight and size of the flies versus control (Drosophila [5]; after ten days of feeding with or without PBA): no differences were observed
life span compared to same strain fed on fly medium (Drosophila [6]; Canton-S strain, 10 mM PBA (FIG. 1C)): extended life span
effect on longevity (Drosophila [6]; w^118 flies, lower concentrations of PBA (0.1, 1, 2.5, 5 mM)): no effect on longevity
extension in maximum life span (Drosophila [6]; [11]): 60%
extension in median life span (Drosophila [6]; [11]): about 35%
survival under paraquat induced stress (Drosophila [7]): survived much longer
acetylation of histones H3 and H4 (histones H3 and H4): increase of acetylated H3 and H4
Fold-change, cytochrome P450-4d1 (CG3656) (transcription levels; induced): 7.2 fold
Fold-change, daughterless (CG5102) (transcription levels; induced): 8.0 fold
Fold-change, dnaJ like2 (CG3061) (transcription levels; induced): 2.9 fold
Fold-change, epididymal secretory protein (CG7291) (transcription levels; induced): 7.5 fold
Fold-change, glutathione S transferase (CG10045) (transcription levels; induced): 4.6 fold
Fold-change, hsc70 (CG4264) (transcription levels; induced): 4.5 fold
Fold-change, hsp60 (CG12101) (transcription levels; induced): 6.7 fold
Fold-change, imaginal disc growth factor1 (CG4472) (transcription levels; induced): 5.3 fold
Fold-change, inebriated (CG15444) (transcription levels; induced): 26.8 fold
Fold-change, mitochondrial phosphate carrier protein (CG4994) (transcription levels; induced): 5.1 fold
Fold-change, superoxide dismutase (CG8905) (transcription levels; induced): 51.9 fold
Fold-change, translational elongation factor1 α (CG8280) (transcription levels; induced): 4.1 fold
Fold-change, transportin (CG7398) (transcription levels; induced): 8.0 fold
Fold-Change, NADH:ubiquinone reductase 75kD subunit precursor (CG2286) (transcription levels; repressed): 25.3 fold
Fold-Change, calreticulin (GH25160) (transcription levels; repressed): 26.5 fold
Fold-Change, cyclin-dependent kinase9 (GH21935) (transcription levels; repressed): 2.7 fold
Fold-Change, cytochrome c oxidase (FBgn0013674) (transcription levels; repressed): 6.6 fold
Fold-Change, cytochrome c oxidase subunit Vlb (CG14235) (transcription levels; repressed): 2.2 fold
Fold-Change, dnaJ like1 (CG10578) (transcription levels; repressed): 13.2 fold
Fold-Change, fatty acid synthetase (CG3523) (transcription levels; repressed): 2.4 fold
Fold-Change, glyceraldehyde 3 phosphate dehydrogenase1 (CG12055) (transcription levels; repressed): 3.7 fold
Fold-Change, hexokinase (CG3001) (transcription levels; repressed): 5.0 fold
Fold-Change, osa (GH03026) (transcription levels; repressed): 5.0 fold
Fold-Change, peptidyl glycine α hydroxylating monooxygenase (CG3832) (transcription levels; repressed): 1.4 fold
Fold-Change, peroxisomal farnesylated protein (GH03076) (transcription levels; repressed): 1.8 fold
Fold-Change, porin (GH08586) (transcription levels; repressed): 1.4 fold
activity on histone deacetylase (histone deacetylase): inhibits the activity of histone deacetylase
egg laying (Drosophila [8]; 3 males + 3 females a vial for 16 hrs, n = 20 vials, 10 mM PBA, 10 days, 25° C.): 70 ± 16
effect on reproductive activity of female flies (Drosophila [8]; all measurements of Table 1): no detrimental effect
% of eggs yielding adults (Drosophila [8]; n = 20 vials, 10 mM PBA, 10 days, 25° C.): 70 ± 16%
weight of 5 flies, progeny females (Drosophila [8]; [12]): 5.2 ± 0.2 mg
weight of 5 flies, progeny males (Drosophila [8]; [12]): 3.5 ± 0.3 mg
size of fly, progeny female (Drosophila [8]; [13]): 5.5 ± 0.1 mm
size of fly, progeny male (Drosophila [8]; [13]): 4.6 ± 0.2 mm
